Active and inactive are the calls of the source. The rule behind the calls is not given here.

Type in all cases: cell-based
Common to all, as to details: COS-1

Assay [1] concerns the target T1, Long-wave-sensitive opsin 1 (Homo sapiens) (UniProt P04000).
T1 sequence (whole entry): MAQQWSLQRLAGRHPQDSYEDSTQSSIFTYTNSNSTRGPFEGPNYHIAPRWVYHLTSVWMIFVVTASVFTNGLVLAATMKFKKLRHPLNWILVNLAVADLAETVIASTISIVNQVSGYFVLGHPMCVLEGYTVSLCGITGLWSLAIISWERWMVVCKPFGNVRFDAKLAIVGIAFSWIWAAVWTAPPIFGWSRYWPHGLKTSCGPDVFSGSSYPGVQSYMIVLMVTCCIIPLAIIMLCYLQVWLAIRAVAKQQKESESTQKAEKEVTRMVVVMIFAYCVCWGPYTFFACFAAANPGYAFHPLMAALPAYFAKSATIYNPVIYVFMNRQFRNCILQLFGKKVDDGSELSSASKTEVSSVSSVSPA
Kind of assay: Agonist activity at human red cone opsin expressed in COS1 cells assessed as activation of transducer at 20 uM by radioactive filter binding assay.

In assay [2] the target is T1, Long-wave-sensitive opsin 1 (Homo sapiens). Kind of assay: Inverse agonist activity at human red cone opsin expressed in COS1 cells assessed as transducer activity at 200 uM by radioactive filter binding assay.
Assay [3] shares this target. Kind of assay: Inverse agonist activity at human red cone opsin expressed in COS1 cells assessed as transducer activity at 20 uM by radioactive filter binding assay.
Assay [4] has the same target. Kind of assay: Inverse agonist activity at human red cone opsin expressed in COS1 cells assessed as transducer activity at 2 mM by radioactive filter binding assay.

Regarding `CC1=C(/C=C/C(C)=C/C=C/C(C)=C/C=C/C=O)C(C)(C)CCC1`, the result in assay [1] was inactive.

Turning to `CC1=C(C=O)C(C)(C)CCC1`, the outcome in assay [2] was Active.

`CC1=C(/C=C/C(C)=C\C=C\C=O)C(C)(C)CCC1`: in assay [3], the result was Active.

As to `CC1CCCC(C)C1` (stereo not given), in assay [4], the result was Active.

On to `C1CCCCC1`, for which, in assay [4], the result was inactive.

The values are drawn from ChEMBL document CHEMBL1949519.
